Results from ChEMBL document CHEMBL5042508, “Structures and Biological Activities of Polyacylated ent-Kaurane Diterpenoid Glycosides from the Aerial Parts of Inula hupehensis” (J Nat Prod, 2022).
pIC50: −log10 of the molar value.

How the values were obtained:
[1] = Inhibition of Saccharomyces cerevisiae alpha-glucosidase using pNPG as substrate assessed as release of p-nitrophenol preincubated for 18 mins followed by substrate addition and measured after 30 mins by colorimetric method
BV-2 [2] = test: Antineuroinflammatory activity against mouse BV-2 cells assessed as inhibition of LPS-induced NO production by Griess assay; assay type: functional, cell-based
BV-2 [3] = test: Cytotoxicity against mouse BV2 cells assessed as reduction in cell viability by MTT assay; assay type: toxicity, cell-based

Compound	pIC50 [1]	pIC50 (BV-2 [2])	Activity (BV-2 [3])
C[C@H]1O[C@H](O[C@H]2[C@H](O)[C@@H](O)[C@@H](O[C@H]3[C@H](O)[C@@H](O)C(O)O[C@@H]3CO)O[C@@H]2CO)[C@H](O)[C@@H](O)[C@@H]1N[C@H]1C=C(CO)[C@@H](O)[C@H](O)[C@H]1O (some centres not stated) [ACARBOSE]	3.41		
C=C1[C@@H]2CC[C@H]3[C@]4(C)C[C@H](O[C@@H]5O[C@H](CO)[C@@H](O)[C@H](OC(C)=O)[C@H]5OC(=O)CC(C)C)CC(C(=O)O)(C(=O)O)[C@H]4CC[C@]3(C2)[C@H]1O	4.48		
CNC(=N)NCCC[C@H](N)C(=O)O [TILARGININE]		4.50	
C=C1[C@@H]2CC[C@H]3[C@]4(C)C[C@H](O[C@@H]5O[C@H](CO)[C@@H](O)[C@H](O[C@@H]6OC[C@H](OC(C)=O)[C@H](O)[C@H]6OC(C)=O)[C@H]5OC(=O)CC(C)C)C[C@@H](C(=O)O)[C@H]4CC[C@]3(C2)[C@H]1O	3.43		
C=C1[C@@H]2CC[C@H]3[C@]4(C)C[C@H](O[C@@H]5O[C@H](CO)[C@@H](OC(C)=O)[C@H](O[C@@H]6OC[C@H](OC(C)=O)[C@H](O)[C@H]6O)[C@H]5OC(=O)CC(C)C)C[C@@H](C(=O)O)[C@H]4CC[C@]3(C2)[C@H]1O	3.27		
C=C1[C@@H]2CC[C@H]3[C@]4(C)C[C@H](O[C@@H]5O[C@H](COC(C)=O)[C@@H](OC(C)=O)[C@H](O[C@@H]6OC[C@H](O)[C@H](O)[C@H]6O)[C@H]5OC(=O)CC(C)C)C[C@@H](C(=O)O)[C@H]4CC[C@]3(C2)[C@H]1O		4.81	Non-Toxic
